The results in this text go back to article PMC7323874, “Vancomycin Resistance Is Overcome by Conjugation of Polycationic Peptides” (Angewandte Chemie (International Ed. in English), 2020).

Values after ≈ are worked out from the molar mass of the structure shown. Where two headings read alike, the source gives them in different places.

In test [1] the test system is Staphylococcus aureus USA300 LAC. In words: microbe, parasite or virus in culture. Conditions: Staphylococcus aureus, MRSA / USA300, 24 h. The class given is cell-based. The method, then: (§1) Antimicrobial testing – Microdilution
Antimicrobial testing was performed according to CLSI and EUCAST guidelines in microdilution.8-10 Therefore, all tested substances as well as controls were dissolved in water in different concentrations and serially diluted in MHB II (cation adjusted) on the 96-well plate. A logarithmic growing, overnight culture of the respective bacterial strain was used and adjusted to a McFarland corresponding to 1 × 10^8 cfu/ml. Afterwards the bacterial suspension was diluted to 1 ×10^6 cfu/ml and loaded on the 96-well polypropylene plates, resulting in a final bacterial concentration of 5 × 10^5 cfu/ml. After an incubation at 35 ± 1 °C for 18-20 hours (re-controlled after 24 hours) the MIC was determined as the lowest concentration without visible growth as described previously.11 For direct comparison of the tested substances, all results were calculated in mg/ml and mol/ml afterwards. […]
Resistance development study
(§2) Resistance development in S. aureus was determined by passaging bacteria in increasing amounts of vancomycin, FU002 or, as control, fusidic acid. In principle, tubes with twofold dilutions of the compounds in 1 ml Muller Hinton broth were inoculated 1:100 with bacterial suspension. The tubes were then incubated for 24 h at 37 °C under shaking. After each passage, the tube with the highest compound concentration showing bacterial growth was used to inoculate the tubes of the next passage (1:100). The tube with the lowest compound concentration showing no growth was defined as the passage MIC. Passaging was stopped after 8 passages.
For the validation of possible side effects provoked by the conjugates, the cytotoxic effect of the lead candidate FU002 on human cells was assessed in a colorimetric viability assay. Different human cell types were used including kidney and liver cell lines as well as freshly isolated peripheral blood cells. Cells were seeded into 96-well microtiter plates at 2 x 10^4 cells/well and cultured overnight (18-24 h) in a […]

The subject of test [2] is Staphylococcus aureus NCTC 10442. Kind of test: Blocking experiments with Nα,Nε-diacetyl-Lys-D-Ala-D-Ala in microdilution. The class given is cell-based. The note with it: at least 100-fold excess of Nα,Nε-Diacetyl-Lys-D-Ala-D-Ala, pre-incubation minimum 1 hour at room temperature. The protocol: as §1
Antimicrobial testing was performed according to CLSI and EUCAST guidelines in microdilution.8-10 Therefore, all tested substances as well as controls were dissolved in water in different concentrations and serially diluted in MHB II (cation adjusted) on the 96-well plate. A logarithmic growing, overnight culture of the respective bacterial strain was used and adjusted to a McFarland corresponding to 1 × 10^8 cfu/ml. Afterwards the bacterial suspension was diluted to 1 ×10^6 cfu/ml and loaded on the 96-well polypropylene plates, resulting in a final bacterial concentration of 5 × 10^5 cfu/ml. After an incubation at 35 ± 1 °C for 18-20 hours (re-controlled after 24 hours) the MIC was determined as the lowest concentration without visible growth as described previously.11 For direct comparison of the tested substances, all results were calculated in mg/ml and mol/ml afterwards.
as §2, with “For blocking experiments with NΑ,NΕ-DIACETYL-LYS-D-ALA-D-ALA the tested substances were incubated directly on the dilution plate with at least 100-fold excess of Nα,Nε-Diacetyl-Lys-D-Ala-D-Ala for a minimum of 1 hour at room temperature. Afterwards, the procedure was performed as described above. As further control substance, the glycopeptide antibiotic teicoplanin was evaluated. […] Resistance” for “Resistance”, “Passaging was stopped after 8 passages.” left out
For the validation of possible side effects provoked by the conjugates, the cytotoxic effect of the lead candidate FU002 on human cells was assessed in a colorimetric viability assay. […]

In the case of `CC(=O)O[C@H]1C[C@@]2(C)[C@@H](C[C@@H](O)[C@H]3[C@@]4(C)CC[C@@H](O)[C@@H](C)[C@@H]4CC[C@@]32C)/C1=C(\CCC=C(C)C)C(=O)O` [fusidic acid], the MIC in test [1] (read-out: MIC after 8 passages) stood at 64 µg/mL (≈ 124 µM); in test [1] (read-out: initial MIC), 0.125 µg/mL (≈ 0.242 µM). As for teicoplanin, the “effect of D-Ala-D-Ala binding motif on antibiotic activity” value in test [2] is given as “suppresses the antibiotic activity”.
